The NIST ThermoML archive (doi:10.1016/j.fluid.2017.04.014)
± gives the expanded uncertainty stated by the source.

Details: Liquid, Closed cell (Static) method

Structure (SMILES) | vapor or sublimation pressure (283.6 K) [kPa] | vapor or sublimation pressure (298.4 K) [kPa] | vapor or sublimation pressure (303.3 K) [kPa] | vapor or sublimation pressure (308.2 K) [kPa] | vapor or sublimation pressure (313.1 K) [kPa] | vapor or sublimation pressure (318.1 K) [kPa] | vapor or sublimation pressure (323 K) [kPa] | vapor or sublimation pressure (327.9 K) [kPa] | vapor or sublimation pressure (337.8 K) [kPa] | vapor or sublimation pressure (293.4 K) [kPa] | vapor or sublimation pressure (298.3 K) [kPa] | vapor or sublimation pressure (332.8 K) [kPa] | vapor or sublimation pressure (303.2 K) [kPa] | vapor or sublimation pressure (308.1 K) [kPa] | other results
COC(C)(C)C [2-methoxy-2-methylpropane] | 17.79 ± 1.1 | 33.72 ± 1.8 | 41.1 ± 2.1 | 49.8 ± 2.4 | 59.9 ± 2.8 | 71.61 ± 3.3 | 85.01 ± 3.8 | 100.34 ± 4.4 | 137.39 ± 5.4 |  |  |  |  |  | vapor or sublimation pressure (288.6 K): 22.07 ± 1.2 kPa; vapor or sublimation pressure (293.5 K): 27.43 ± 1.5 kPa; vapor or sublimation pressure (332.9 K): 117.7 ± 5 kPa
CC(C)CC(C)(C)C [2,2,4-trimethylpentane] | 3.05 ± 0.46 | 6.62 ± 0.42 | 8.39 ± 0.64 | 10.53 ± 0.7 | 12.97 ± 0.8 | 15.96 ± 0.94 | 19.54 ± 1.1 |  |  | 5.18 ± 0.51 | 6.63 ± 0.42 | 28.66 ± 1.4 |  |  | vapor or sublimation pressure (288.4 K): 3.99 ± 0.48 kPa; vapor or sublimation pressure (328 K): 23.81 ± 1.3 kPa
CCO [ethanol] |  |  |  |  | 17.87 ± 1.2 | 22.98 ± 1.5 |  | 36.73 ± 2.3 |  | 5.95 ± 0.56 | 7.96 ± 0.7 | 46.15 ± 2.6 | 10.52 ± 0.85 | 13.84 ± 1 | vapor or sublimation pressure (278.6 K): 2.18 ± 0.45 kPa; vapor or sublimation pressure (283.5 K): 3.11 ± 0.5 kPa; vapor or sublimation pressure (322.9 K): 29.05 ± 1.9 kPa
Cc1ccccc1 [toluene] | 1.7 ± 0.42 |  |  |  | 7.99 ± 0.62 |  | 12.26 ± 0.77 | 15 ± 0.9 | 22.04 ± 1.1 | 2.97 ± 0.45 | 3.89 ± 0.47 | 18.26 ± 1 | 5 ± 0.5 | 6.27 ± 0.55 | vapor or sublimation pressure (278.7 K): 1.26 ± 0.41 kPa; vapor or sublimation pressure (288.5 K): 2.26 ± 0.43 kPa; vapor or sublimation pressure (318 K): 9.95 ± 0.68 kPa
